Our source for the IC50 values is BindingDB's records for patent US11214574 (Prelude Therapeutics, Incorporated, 2022).

The target in the test is Methylosome protein 50/Protein arginine N-methyltransferase 5 (Homo sapiens, UniProt O14744+Q9BQA1). Description: Biochemical Assay. Here is the method: Compounds were solubilized and 3-fold diluted in 100% DMSO. […] Standard reactions were performed in a total volume of 30 μl in assay buffer, with 300 nM histone H4 based AcH4-23 (Anaspec: AS-65002) as substrate. To this was added the PRMT5/MEP50 complex diluted to provide a final assay concentration of 2.5 nM and the compounds were allowed to preincubate for 20 minutes at 37° C. The reaction was initiated by adding S-[3H-methyl]-adenosyl-L-methionine (PerkinElmer: NET155001MC) to final concentration of 1 μM. Following a 30 minutes incubation at 37° C., the reaction was stopped by adding 25 μL of 8M Guanidine HCl. Prepare streptavidin YSI SPA beads (Perkinelmer: RPNQ0012) at 0.3 mg/mL in assay buffer. To each reaction, add 150 μL of SPA beads suspension, and incubated while shaking at room temperature for 30 minutes. The plate was centrifuged at 100×g for 30 second before reading in a scintillation counter. IC50 values were determined by fitting the data to the standard 4 parameters with Hill Slope using GraphPad Prism software.
Methylosome protein 50/Protein arginine N-methyltransferase 5, sequence (O14744 whole entry): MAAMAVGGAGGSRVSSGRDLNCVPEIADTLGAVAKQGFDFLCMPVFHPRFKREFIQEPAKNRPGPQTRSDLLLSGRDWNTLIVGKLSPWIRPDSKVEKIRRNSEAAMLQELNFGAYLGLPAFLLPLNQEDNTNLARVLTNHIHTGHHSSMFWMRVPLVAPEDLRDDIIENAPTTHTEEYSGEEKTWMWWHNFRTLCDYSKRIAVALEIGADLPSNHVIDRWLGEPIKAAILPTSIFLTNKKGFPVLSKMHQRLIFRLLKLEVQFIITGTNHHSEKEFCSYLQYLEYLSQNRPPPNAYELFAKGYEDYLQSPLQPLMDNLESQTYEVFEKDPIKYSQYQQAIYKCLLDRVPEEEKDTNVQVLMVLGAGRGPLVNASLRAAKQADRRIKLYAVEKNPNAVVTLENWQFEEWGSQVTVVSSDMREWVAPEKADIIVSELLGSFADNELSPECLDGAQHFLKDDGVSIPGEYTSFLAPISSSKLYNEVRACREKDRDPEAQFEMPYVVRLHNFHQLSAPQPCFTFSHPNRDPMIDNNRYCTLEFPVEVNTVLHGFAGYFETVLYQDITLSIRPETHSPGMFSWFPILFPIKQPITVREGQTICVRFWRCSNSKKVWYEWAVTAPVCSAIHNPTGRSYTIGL
Methylosome protein 50/Protein arginine N-methyltransferase 5, sequence (Q9BQA1 whole entry): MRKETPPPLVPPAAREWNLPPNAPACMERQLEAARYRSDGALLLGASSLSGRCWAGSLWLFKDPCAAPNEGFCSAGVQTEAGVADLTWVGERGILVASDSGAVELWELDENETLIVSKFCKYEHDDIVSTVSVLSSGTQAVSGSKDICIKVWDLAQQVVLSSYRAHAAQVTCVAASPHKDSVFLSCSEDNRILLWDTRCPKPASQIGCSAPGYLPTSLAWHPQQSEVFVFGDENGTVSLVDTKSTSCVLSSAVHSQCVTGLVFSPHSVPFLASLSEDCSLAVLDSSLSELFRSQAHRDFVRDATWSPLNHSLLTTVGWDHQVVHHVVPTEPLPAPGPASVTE

`Nc1ncnc2c1ccn2[C@@H]1O[C@H]([C@H]2OC(=O)c3cc(Cl)ccc32)[C@@H](O)[C@H]1O` [US11214574, Ex# 1B] came in with an IC50 of 270 nM. This counts as sub-micromolar.

For orientation: IC50 means the point on the concentration scale where inhibition reaches its midpoint.
